The term Ki denotes the dissociation constant of the complex between target and ligand, obtained from inhibition or displacement. Low values mean a stronger hold on the target, high ones a looser hold on the target. Broadly, the EC50 is the concentration that produces a half-maximal response.

One experiment has as its target Adenosine receptor A2a (Homo sapiens, UniProt P29274). The experiment is described as follows: Displacement of L0058RED from adenosine A2A receptor (unknown origin) in Tag-lite labeled cells measured after 45 mins by fluorescence based HTRF assay. In kind it is cell-based.
The next experiment deals with T1, Adenosine receptor A2b (Homo sapiens, UniProt P29275).
T1 sequence (P29275 whole entry): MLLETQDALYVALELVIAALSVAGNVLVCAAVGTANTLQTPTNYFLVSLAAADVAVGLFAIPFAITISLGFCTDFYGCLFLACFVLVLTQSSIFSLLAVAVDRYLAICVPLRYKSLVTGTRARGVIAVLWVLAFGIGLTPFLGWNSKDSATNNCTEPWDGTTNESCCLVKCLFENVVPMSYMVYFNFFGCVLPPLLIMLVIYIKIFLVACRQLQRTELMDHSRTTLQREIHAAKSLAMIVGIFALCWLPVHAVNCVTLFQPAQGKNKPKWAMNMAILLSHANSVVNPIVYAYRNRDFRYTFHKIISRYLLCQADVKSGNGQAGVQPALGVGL
The experiment is described as follows: Inhibition of human adenosine A2B receptor expressed in HEK293 cells assessed as reduction in NECA-stimulated cAMP accumulation preincubated for 30 mins followed by NECA stimulation for 60 mins by FRET assay. Type of experiment: functional, cell-based. (In general: Changes in cAMP serve as a functional read-out for many G protein-coupled receptors.)

Sequence of Adenosine receptor A2a (P29274 whole entry): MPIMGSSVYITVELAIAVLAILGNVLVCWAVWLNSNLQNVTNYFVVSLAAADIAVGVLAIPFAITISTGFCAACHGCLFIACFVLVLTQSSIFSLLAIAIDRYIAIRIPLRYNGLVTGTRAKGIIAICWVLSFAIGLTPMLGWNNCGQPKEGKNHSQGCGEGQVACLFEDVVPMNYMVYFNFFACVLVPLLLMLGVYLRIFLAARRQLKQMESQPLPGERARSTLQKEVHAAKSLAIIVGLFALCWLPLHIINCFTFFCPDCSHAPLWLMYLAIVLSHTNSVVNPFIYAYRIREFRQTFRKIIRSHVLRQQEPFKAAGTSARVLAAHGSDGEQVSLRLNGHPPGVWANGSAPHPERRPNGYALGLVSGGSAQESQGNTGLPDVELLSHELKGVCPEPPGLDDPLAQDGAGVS

`N#Cc1cccc(-c2nc(N)n3nc(Cc4cccnc4)nc3c2-c2ccncn2)c1` showed an inhibition constant (Ki) at Adenosine receptor A2a of no more than 10 nM. At Adenosine receptor A2b, the EC50 was no more than 10 nM.

`N#Cc1cccc(-c2nc(N)c3nn(Cc4ncccc4F)nc3c2-c2ccncc2)c1` returned an inhibitory constant (Ki) at Adenosine receptor A2a of no more than 10 nM. Besides, at Adenosine receptor A2b, the concentration for a half-maximal effect (EC50) is no more than 10 nM.

In turn, `Cn1nccc1-c1c(-c2cccc(C#N)c2F)nc(N)c2nn(Cc3ccccn3)nc12` registered a Ki on Adenosine receptor A2a of no more than 10 nM. On Adenosine receptor A2b, the EC50 is no more than 10 nM.

In the case of `Cc1ncoc1-c1c(-c2cccc(C#N)c2)nc(N)c2nc(C(N)c3c(F)cccc3F)nn12` (configuration not stated), the Ki at Adenosine receptor A2a was no more than 10 nM. Moreover, the 50% effective concentration (EC50) at Adenosine receptor A2b was no more than 10 nM.

Take `N#Cc1cccc(-c2cc3nc(C(O)c4c(F)cccc4F)nn3c(N)n2)c1F` (configuration not stated): the Ki on Adenosine receptor A2a is no more than 10 nM. Moreover, on Adenosine receptor A2b, the EC50 is no more than 10 nM.

In turn, `N#Cc1cccc(-c2nc(N)n3nc(C(O)c4c(F)cccc4F)nc3c2C#N)c1F` (configuration not stated) returned an inhibitory constant (Ki) at Adenosine receptor A2a of no more than 10 nM. Also, the EC50 on Adenosine receptor A2b is no more than 10 nM.
